Activity calls are given as the source filed them. No rule for the calls is given here. Bounds are passed on as bounds.

This test has as its target glucose-6-phosphate dehydrogenase-6-phosphogluconolactonase (Plasmodium falciparum 3D7). In words: inhibition of P. falciparum G6PD activity – biochemical, kinetic NADPH detection, orthogonal assay, dose response (AID 540269). The note with it: purified PfG6PD-6PGL.
For orientation: IC50 means the concentration that gives 50% inhibition. As to `C[C@H](NC(N)=O)C(=O)Nc1ccc(N2CCOCC2)c(S(=O)(=O)Nc2ccc(Cl)cc2)c1`, the IC50 was > 80 µM (inactive).

As for `Cc1cc(C)c(NC(=S)NCC2CCN(C(C)c3ccccc3)C2)c(C)c1` (stereo unspecified), the IC50 was > 80 µM (inactive).

As for `CCOc1ccccc1C=NNC(=O)CCCCC(=O)NN=Cc1ccccc1OCC`, the IC50 is > 80 µM (inactive).

Consider `CCn1c2ccccc2c2cc(/C=N/n3cn[nH]c3=S)ccc21`, for which the half-maximal inhibitory concentration (IC50) is 9.07 µM.

As for `Cc1cc(=O)[nH]c(N/N=C/c2c(C)nn(-c3ccccc3)c2Cl)n1`, the IC50 was 17.1 µM.

With `Cc1ccc2nc(SCC(=O)N/N=C/c3ccco3)cc(C)c2c1`, the IC50 is > 80 µM (inactive).

Consider `COc1ccc(CCn2c(NN)nc3c2c(=O)[nH]c(=O)n3C)cc1`, for which the IC50 is 22.4 µM.

In the case of `Cc1cnc(C=NNC(N)=S)c2cccc(N)c12`, the IC50 was > 80 µM (inactive).

On to `Cc1cc(C)nc(/N=C(\N)Nc2ccccc2-c2ccccc2)n1`, for which the IC50 is > 80 µM (inactive).

Turning to `COc1ccc(OCc2nnc3n2N=C(c2ccccc2)C(CC(=O)O)S3)cc1` (stereo unspecified), the IC50 is > 80 µM (inactive).

Turning to `COc1ccc(C(=O)c2c(C(F)(F)F)oc3c2C(=O)c2ccccc2C3=O)cc1`, the IC50 is > 80 µM (inactive).

As for `C[n+]1c(-c2ccccc2)cc2c(=Cc3ccc([N+](=O)[O-])cc3)c3ccccc3n21`, the concentration for half-maximal inhibition (IC50) was 51.5 µM.

In the case of `CCSc1nc2cc(S(=O)(=O)N3CCOCC3)ccc2o1`, the IC50 is > 80 µM (inactive).

In the case of `Cc1ccc(NC(=O)c2cc(C)n(-c3ccccc3)c2C)cc1`, the IC50 is > 80 µM (inactive).

For the compound `Cc1ccc2nc3sc(C(=O)N4CCOCC4)c(N)c3cc2c1`, the IC50 is 37 µM.

For the compound `CN1CCc2cccc3c2[C@H]1Cc1ccc(O)c(O)c1-3`, the IC50 is > 80 µM (inactive).

Take `O=C(CSc1nc2ccccc2[nH]1)NC1CCCc2ccccc21` (stereo unspecified): the IC50 was > 80 µM (inactive).

`C/C(Cn1nnc([N+](=O)[O-])n1)=N\NC(=O)c1ccc(O)cc1`: the IC50 is > 80 µM (inactive).

As to `CN1CCN(C(=O)c2sc(=S)n(-c3ccccc3)c2N)CC1`, the half-maximal inhibitory concentration (IC50) is 50.3 µM.

For the compound `O=C1C=CC(=O)N1c1ccc2c(c1)C(NC(=O)C(F)(F)F)c1ccccc1-2` (stereo unspecified), the IC50 was > 80 µM (inactive).

For the compound `CC(=O)Nc1cc([N+](=O)[O-])ccc1OCc1ccccc1`, the IC50 was > 80 µM (inactive).

For `C=C1C(=O)O[C@@H]2C[C@@H](C)[C@@H]3C=CC(=O)[C@@]3(C)[C@@H](OC(=O)CC(=O)O[C@H]3[C@@H]4C(=C)C(=O)O[C@@H]4C[C@@H](C)[C@@H]4C=CC(=O)[C@]43C)[C@H]12`, the IC50 was > 80 µM (inactive).

`CCOc1ccc(N(CC(=O)N/N=C/c2cc([N+](=O)[O-])ccc2Cl)S(C)(=O)=O)cc1`: the IC50 is > 80 µM (inactive).

Regarding `COc1cc(-c2nnc3n2N=C(c2ccccc2)CS3)cc(OC)c1OC`, the IC50 was > 80 µM (inactive).

For the compound `CCN(CC)C(=S)SSC(=S)N(CC)CC`, the IC50 is > 80 µM (inactive).

With `Cc1ccc(/C=C/C(=O)NC2CCCCCCC2)o1`, the IC50 was > 80 µM (inactive).

Turning to `CC(NC(=O)c1sc2cc([N+](=O)[O-])ccc2c1Cl)C(C)(C)C` (stereo unspecified), the IC50 was > 80 µM (inactive).

`CC(=O)Nc1ccc(S(=O)(=O)/N=C2\C(=O)c3ccccc3C([O-])=C2n2cc[n+](-c3ccccn3)c2)cc1`: the IC50 was > 80 µM (inactive).

Take `O=C(COc1cccc2ccccc12)Nc1ccc(Cl)cc1C(=O)O`: the half-inhibitory concentration (IC50) is 33.7 µM.

Turning to `Cc1[nH]c(=S)c(C#N)c(C)c1CCC#N`, the IC50 was > 80 µM (inactive).

With `CCOC(=O)c1ccc(/[N+]([O-])=C/c2ccccc2)cc1`, the IC50 is > 80 µM (inactive).

For `COc1ccc(N2CSC3=C(C#N)C(c4ccc(OC)c(OC)c4)CC(=O)N3C2)c(OC)c1` (stereo unspecified), the IC50 was > 80 µM (inactive).

In the case of `Clc1nssc1=Nc1nncs1`, the concentration for half-maximal inhibition (IC50) was 33.4 µM.

As to `CC1(OC(=O)C2CCCC2)C(=O)C=C2C=C(c3ccsc3)N(CCc3c[nH]c4ccccc34)C=C2C1=O` (stereo unspecified), the IC50 was > 80 µM (inactive).

For `CN(CCO)c1cc(Sc2nc3ccccc3s2)c2nonc2c1[N+](=O)[O-]`, the IC50 is > 80 µM (inactive).

Turning to `CC1(C)CN(c2ccccc2)N(C(=O)c2ccc(C#N)cc2)C1=O`, the IC50 is > 80 µM (inactive).

For the compound `COc1cc(/C=N/Nc2nncn2N)ccc1OCc1c(C)no[n+]1[O-]`, the IC50 is > 80 µM (inactive).

Regarding `COc1cc(C(=O)ON=C2C=C(C)C(=O)C(C)=C2)cc(OC)c1OC`, the IC50 was > 80 µM (inactive).

For `CN1CCN(C(=S)C(=O)Nc2ccc(Br)cc2)CC1`, the concentration for half-maximal inhibition (IC50) is 57.7 µM.

Regarding `C=CCOc1c(Cl)cc(CNc2ccc3[nH]c(=O)[nH]c3c2)cc1OC`, the IC50 is > 80 µM (inactive).

Turning to `NC1CCc2cc(O)c(O)cc2C1` (stereo unspecified), the IC50 is 34.5 µM.

As to `c1nc(SSc2ncnc3nc[nH]c23)c2[nH]cnc2n1`, the IC50 is 27 µM.

On to `Cc1ccc(S(=O)(=O)N(C)C)cc1NC(=O)CSc1nc2ncc(Cl)cc2[nH]1`, for which the IC50 is > 80 µM (inactive).

`COc1cc(NCCCn2cnc3c(OCc4ccccc4)ncnc32)cc(OC)c1OC`: the IC50 was > 80 µM (inactive).

Take `O=C(Nc1nnc(S(=O)(=O)N2CCCCC2)s1)c1ccc(Cl)cc1`: the 50% inhibitory concentration (IC50) was 25.6 µM.

Turning to `O=C(Nc1nnc(S(=O)(=O)N2CCCCC2)s1)c1cccc(Br)c1`, the IC50 was 23.8 µM.

As for `O=C(Nc1nnc(S(=O)(=O)N2CCOCC2)s1)c1ccc(F)cc1`, the 50% inhibitory concentration (IC50) is 56.9 µM.

As for `CCN1/C(=C/C=C/C=C/C=C/c2sc3ccccc3[n+]2CC)Sc2ccccc21`, the IC50 was > 80 µM (inactive).

With `CCOC(=O)Nc1ccc(NCc2ccc(F)cc2)nc1N`, the IC50 was > 80 µM (inactive).

For the compound `CC(=O)Nc1ccc2sn(-c3ccccc3)c(=O)c2c1`, the IC50 was 24.1 µM.

Turning to `CCNc1ccccc1CP(=O)(c1ccccc1)c1ccccc1O` (stereo unspecified), the IC50 was > 80 µM (inactive).

Consider `COc1cc(NCCCn2cnc(C(=O)Nc3ccc(C)c(C)c3)n2)cc(OC)c1OC`, for which the IC50 is > 80 µM (inactive).

As to `Nn1c(SCC(=O)Nc2cccnc2Cl)nnc1-c1ccccc1`, the IC50 is > 80 µM (inactive).

For `O=C1OC(c2ccc3ccccc3c2O)(c2ccc3ccccc3c2O)c2ccccc21`, the IC50 is > 80 µM (inactive).

Regarding `COc1ccc(C(=O)Nc2sc3c(c2C(=O)O)CC(C)(C)OC3)cc1`, the 50% inhibitory concentration (IC50) was 40.6 µM.

Turning to `N#Cc1ccc2c(=O)n(-c3ccccc3)sc2c1`, the IC50 is 39.6 µM.

For `CCc1cc(-c2n[nH]c(C)c2-c2ccccc2Cl)c(O)cc1OC`, the IC50 is > 80 µM (inactive).

`COCc1cc(=O)n2[nH]c(C(C)(C)C)cc2n1`: the IC50 was 43.2 µM.

As to `CC1(C)Nc2ccc(O)cc2-c2c1ssc2=S`, the IC50 is > 80 µM (inactive).

On to `CCN(CC)C(=O)c1c(C)[nH]c(=S)c(C#N)c1-c1ccco1`, for which the IC50 is > 80 µM (inactive).

For the compound `C=CCSc1nc2sc3c(c2c(=O)n1CC)CCc1ccccc1-3`, the IC50 is > 80 µM (inactive).

Turning to `CCc1ccc(OCC(=O)N/N=C/c2cc([N+](=O)[O-])ccc2N2CCOCC2)cc1`, the IC50 was > 80 µM (inactive).

For `COc1c2ccoc2c(OCC=C(C)C)c2oc(=O)ccc12`, the IC50 was > 80 µM (inactive).

For the compound `c1cncc(CNc2ccc3c(c2)OCO3)c1`, the IC50 is > 80 µM (inactive).

Regarding `COc1ccc(OC)c2c1C(=O)C(Cl)=C(Cl)C2=O`, the IC50 was 20.3 µM.

On to `COc1cc(/C=C2\CC/C(=C\c3cc(OC)c(O)c(OC)c3)C2=O)cc(OC)c1O`, for which the IC50 was > 80 µM (inactive).

Take `COc1cc(/C=C2\SC(c3ccc(C)cc3)=NC2=O)ccc1O`: the IC50 is > 80 µM (inactive).

On to `CCOC(=O)c1c2ccc(OCC(=O)NN)cc2n2ccccc12`, for which the IC50 is 9.4 µM.

As for `COc1ccc2ccccc2c1C1CC(=O)N2CN(C3CCCCC3)CSC2=C1C#N` (stereo unspecified), the IC50 is > 80 µM (inactive).

Turning to `CC(C)c1nnc(NC(=O)c2cccc(-n3cnnn3)c2)s1`, the IC50 is 27.4 µM.

`O=C(NCCCN1CCOCC1)c1sc2cc([N+](=O)[O-])ccc2c1Cl`: the 50% inhibitory concentration (IC50) was 38.5 µM.

On to `CC(Cc1ccc(O)c(O)c1)C(C)Cc1ccc(O)c(O)c1` (stereo unspecified), for which the half-maximal inhibitory concentration (IC50) is 54.9 µM.

Turning to `Cc1noc(C(=O)Nc2sc3c(c2C#N)CCC3)c1Cl`, the IC50 is > 80 µM (inactive).

In the case of `O=C(CNC(=O)c1ccc(Br)cc1)NCC(=O)OCC(=O)c1ccc([N+](=O)[O-])cc1`, the IC50 was > 80 µM (inactive).

Take `O=C(Nc1ccccc1C(=O)N/N=C/c1ccco1)c1ccccc1Cl`: the IC50 is > 80 µM (inactive).

As to `CCNc1nc(NC(C)C)nc(NS(=O)(=O)c2ccc(Cl)cc2)n1`, the IC50 was > 80 µM (inactive).

`Fc1cccc(Cl)c1CNc1ccc(N2CCCC2)cc1`: the IC50 is > 80 µM (inactive).

On to `Clc1ccc2nc(-c3ccc4c(c3)OCO4)cn2c1`, for which the IC50 was 40.7 µM.

In the case of `C/C(Cn1nnc([N+](=O)[O-])n1)=N\NC(=O)c1ccccc1O`, the concentration for half-maximal inhibition (IC50) is 46.3 µM.

With `CC(CNc1ccccc1O)C(=O)O` (stereo unspecified), the IC50 was > 80 µM (inactive).

For `Cc1ccc(C(=O)/C=C/C(=O)c2ccc(C)cc2)cc1`, the IC50 is > 80 µM (inactive).

For the compound `O=C(Nc1ccc(N2CCOCC2)c(Cl)c1)c1ccc(Cl)cc1`, the IC50 is > 80 µM (inactive).

As to `COc1ccccc1NS(=O)(=O)c1cc(NC(=O)c2ccc(Cl)nc2)ccc1N1CCCC1`, the IC50 was 32.1 µM.

Consider `Clc1ccc(N=c2ssnc2Cl)nc1`, for which the IC50 is > 80 µM (inactive).

Consider `CCC(C)c1ccccc1OCCn1ccnc1` (stereo unspecified), for which the IC50 is > 80 µM (inactive).

`O=C(Nc1ccc([N+](=O)[O-])cc1Cl)c1cc(Cl)ccc1O`: the IC50 is > 80 µM (inactive).

For `COc1ccc(C(=O)Nc2cc(Cl)ccc2C(=O)O)cc1`, the 50% inhibitory concentration (IC50) was 17.7 µM.

For `CCC(C)N(CCNC(=O)c1ccc2c(c1)NC(=O)c1ccccc1S2)C1CCCCC1` (stereo unspecified), the IC50 is 6.35 µM.

Consider `C#CCCc1cscc1/C=[N+](\[O-])c1ccc(C(=O)OCC)cc1`, for which the half-maximal inhibitory concentration (IC50) is 36.4 µM.

Consider `COc1ccccc1N1CSC2=C(C#N)C(c3ccc(SC)cc3)CC(=O)N2C1` (stereo unspecified), for which the half-maximal inhibitory concentration (IC50) was 62.6 µM.

Consider `O=C1C=C(NCCc2cc(Br)c(O)c(Br)c2)C(=O)c2ncccc21`, for which the IC50 is > 80 µM (inactive).
